Measurements published in US7026516B2 (priority 2000, dated 2006).
Like-named read-outs stand apart in the source and are kept apart here.

Experiments:
dopamine transporter = target: T1, dopamine transporter (Macaca fascicularis, UniProt Q9GJT6); experiment: Inhibition of [3H]WIN 35,428 binding to the dopamine transporter in monkey caudate-putamen
T1 construct: Each caudate-putamen was homogenized and used separately for dopamine and serotonin transporter assays; from tissue; host or cells: caudate-putamen membranes of adult cynomolgus or rhesus monkey brain

serotonin transporter = target: T2, serotonin transporter (Macaca mulatta, UniProt Q9MYX0); experiment: biochemical; assay type: binding
T2 construct: Each caudate-putamen was homogenized and used separately for dopamine and serotonin transporter assays; from tissue; host or cells: caudate-putamen membranes of adult cynomolgus or rhesus monkey brain
Method: The affinities and transporter selectivities of the drugs were assessed in brain tissue of adult cynomolgus or rhesus monkey (Macaca fasicularis or Macaca Mulatta). Caudate-putamen was the source of the dopamine and serotonin transporters. The dopamine transporter affinity was measured with [3H]WIN 35,428 ([3H]CFT), the serotonin transporter was measured with [3H]citalopram and the norepinephrine transporter was measured with [3H]nisoxetine. Affinities of selected compounds were also measured at the human dopamine transporter in HEK-293 cells expressing the human dopamine transporter (hDAT).
Brain tissue was harvested from adult male and female cynomolgus (Macaca fasicularis) or rhesus (Macaca Mulatta) monkeys euthanized in the course of other research or after spontaneous death. Tissue was stored in the brain bank at the New England Regional Primate Research Center at −85° C. The caudate-putamen (approximately 1.5 g) was dissected from coronal sections of brain. Each caudate-putamen was homogenized and used separately for dopamine and serotonin transporter assays. Prior to homogenization, the thalamus from two brains was pooled and membranes were prepared as described previously for norepinephrine transporter assays (Madras et al., Synapse, 22:231–232, 1998; Madras et al., Synapse, 24:340–348, 1996). Briefly, the tissue was homogenized in 10 volumes (w/v) of ice-cold Tris.HCl buffer (50 mM, pH 7.4 at 0–4° C.) and centrifuged at 38,700×g for 20 min in the cold. The resulting pellet was resuspended in 40 volumes of buffer, and the entire wash procedure was repeated twice. The membrane suspension (25 mg original wet weight of tissue/ml) was diluted to 12 mg/ml in buffer just prior to assay and dispersed with a Brinkmanm polytron (setting #5) for 15 sec. […] All experiments were conducted in triplicate and each experiment was repeated in 2–4 individual tissue preparations.
The serotonin transporter was assayed in caudate-putamen membranes using similar assay conditions as for the dopamine transporter. […] The affinity of drugs for the serotonin transporter labeled by [^3H]citalopram (spec. act.: approximately 85 Ci/mmol, NEN) was determined in experiments by incubating tissue with a fixed concentration of [^3H]citalopram and a range of concentrations of drug. Assays were conducted in Tris-HCl buffer containing NaCl (100 mM) and the following constituents: [^3 H]citalopram (1 nM, 0.2 ml), test drug (1 pM–100 TM, 0.2 ml) and tissue (0.2 ml, 3 mg/ml original wet tissue weight). The 2 h incubation (0–4° C.) was initiated by addition of membranes and terminated by rapid filtration over Whatman GF/B glass fiber filters pre-soaked 1 hour in 0.1% polyethyleneimine. The filters were washed three times with 5 ml Tris.HCl buffer (50 mM), and the remaining steps were carried out as described above. Total binding was defined as [^3H]citalopram bound in the presence of ineffective concentrations of unlabeled citalopram (1 pM) or the test compounds. Non-specific binding was defined as [^3H]citalopram bound in the presence of an excess (10 TM) of fluoxetine. Specific binding was the difference between the two values. Cpm were converted to dpm following determination of counting efficiency (>45%) of each vial by external standardization.
Data were analyzed by the EBDA and LIGAND computer software programs (ElsevierBiosoft, U.K.) Final estimates of IC50 and nH values were computed by the EBDA program. Baseline values for the individual drugs were established by computer analysis, using the baseline drugs as a guide. The LIGAND program provided final parameter estimates for the affinity of the radioligand (Kd) by iterative non-linear curve-fitting and evaluation of one- or two-component binding models. LIGAND was used to measure the affinity of the radioligands at the dopamine and serotonin transporter. Graphs (not shown) were produced by the computer software program PRISM, using a one- or two-site competition analysis curve.

[1] = Table 1, [3H]WIN 35,428, monkey caudate-putamen, mean of 3 or more experiments, read-out: DAT IC50
[2] = Table 2, affinity at the dopamine transporter, read-out: DAT IC50
[3] = Table 2, ratio of SERT and DAT IC50 values
[4] = read-out: IC50, binding potency at the DAT
[5] = Table 1, [3H]citalopram, monkey caudate-putamen, mean of 3 or more experiments, read-out: SERT IC50
[6] = Table 2, affinity at the serotonin transporter, read-out: SERT IC50

T2 sequence (Q9MYX0 whole entry): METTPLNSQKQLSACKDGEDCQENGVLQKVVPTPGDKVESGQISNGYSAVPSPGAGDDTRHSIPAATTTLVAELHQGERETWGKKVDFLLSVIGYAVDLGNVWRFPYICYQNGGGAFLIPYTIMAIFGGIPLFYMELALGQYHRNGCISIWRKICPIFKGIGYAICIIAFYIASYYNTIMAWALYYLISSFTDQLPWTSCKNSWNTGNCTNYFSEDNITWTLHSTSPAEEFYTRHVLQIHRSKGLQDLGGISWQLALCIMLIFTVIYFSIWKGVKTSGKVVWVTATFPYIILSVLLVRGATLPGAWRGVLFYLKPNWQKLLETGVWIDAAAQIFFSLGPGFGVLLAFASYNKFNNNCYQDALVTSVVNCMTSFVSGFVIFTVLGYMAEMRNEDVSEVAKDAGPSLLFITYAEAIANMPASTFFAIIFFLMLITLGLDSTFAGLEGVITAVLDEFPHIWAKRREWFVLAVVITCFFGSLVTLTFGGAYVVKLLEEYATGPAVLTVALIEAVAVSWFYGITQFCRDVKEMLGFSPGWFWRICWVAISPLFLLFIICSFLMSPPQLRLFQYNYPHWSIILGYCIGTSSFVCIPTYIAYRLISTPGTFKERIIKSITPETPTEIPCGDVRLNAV
T1 sequence (Q9GJT6 whole entry): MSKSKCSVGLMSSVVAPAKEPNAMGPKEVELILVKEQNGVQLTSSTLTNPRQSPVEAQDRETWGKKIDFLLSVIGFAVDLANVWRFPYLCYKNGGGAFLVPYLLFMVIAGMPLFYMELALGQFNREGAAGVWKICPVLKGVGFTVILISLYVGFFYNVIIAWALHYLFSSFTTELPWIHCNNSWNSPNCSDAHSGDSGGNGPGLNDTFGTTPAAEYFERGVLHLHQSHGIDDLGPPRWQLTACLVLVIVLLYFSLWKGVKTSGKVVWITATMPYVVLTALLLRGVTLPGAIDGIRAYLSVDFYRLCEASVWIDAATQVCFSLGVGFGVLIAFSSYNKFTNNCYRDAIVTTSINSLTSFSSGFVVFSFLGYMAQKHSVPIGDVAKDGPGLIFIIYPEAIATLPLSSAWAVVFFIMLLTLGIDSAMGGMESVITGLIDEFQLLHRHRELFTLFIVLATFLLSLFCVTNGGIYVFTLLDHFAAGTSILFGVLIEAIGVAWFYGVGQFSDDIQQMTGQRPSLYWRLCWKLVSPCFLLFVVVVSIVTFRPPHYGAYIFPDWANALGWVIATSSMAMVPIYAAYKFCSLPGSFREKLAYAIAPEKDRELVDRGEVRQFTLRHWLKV

SMILES	IC50 (dopamine transporter; [2]) [nM]	DAT/SERT RATIO (dopamine transporter; [3])	IC50 (serotonin transporter; [5]) [µM]	IC50 (serotonin transporter; [6]) [µM]	also measured
COC(=O)C(c1ccc2ccccc2c1)C1CCCCO1 (centres unmarked) [Naphthyl mixture, (2-Naphthyl)-(tetrahydropyran-2-yl) acetic acid methyl esters]	300	16.7	5	5	IC50 (dopamine transporter; [1]): 300 nM; IC50 (dopamine transporter; binding to the DAT, read-out: DAT IC50): 300 nM; IC50 (dopamine transporter; [4]): 300 nM; IC50 (serotonin transporter; binding to the SERT, read-out: SERT IC50): 5 µM
COC(=O)[C@@H](c1ccc(Cl)c(Cl)c1)[C@H]1CCCCO1 [Compound O-1793, 2S-(3,4-Dichlorophenyl)tetrahydropyran-2′R-yl acetic acid methyl ester]	–	–	> 10	> 10	–
O=C(O)C(c1ccc(Cl)c(Cl)c1)C1CCCCO1 (centres unmarked)	–	–	–	–	melting point: 138.9 to 139.9 °C
CO[C@@H]1C[C@@H](c2ccc3ccccc3c2)c2ccccc21 (relative stereo) [Compound 0-1925, Trans-1-Methoxy-3-(2-naphthyl)indans]	213 ± 27	0.6	–	0.136 ± 0.0045	–
N#CC(c1ccc(Cl)c(Cl)c1)C1CCCCC1 (stereo not drawn) [Compound 8, α-cyclohexyl-3,4-dichlorobenzylcyanide]	127	63	8	8	IC50 (dopamine transporter; [4]): 127 to 146 nM; IC50 (serotonin transporter; read-out: IC50, binding potency at the SERT): 8 to 12 µM
O=C(O)[C@H](c1ccc(Cl)c(Cl)c1)C1CCCCO1 (some centres unmarked)	–	–	–	–	melting point: 124.1 to 125.1 °C
COC(=O)[C@H](c1ccc(Cl)c(Cl)c1)[C@H]1CCCCO1 [Compound O-1783]	–	–	> 10	> 10	IC50 (dopamine transporter): 17 ± 1.3 nM
CO[C@@H]1C[C@H](c2ccc3ccccc3c2)c2ccccc21 (relative stereo) [Compound 0-1833, Cis-3-(2-Naphthyl)-0-methylindanol]	189 ± 12	2	–	0.422 ± 0.038	–
COC(=O)C(c1ccc(Cl)c(Cl)c1)C1CCCCO1 (centres unmarked) [Compound 0-1731, 2-(3,4-Dichlorophenyl)tetrahydropyran-2-yl acetic acid methyl esters]	286 ± 10.5	–	–	7.79	–
N#CC(c1ccc(Cl)c(Cl)c1)C1CCCC1 (stereo not drawn) [Compound 10, α-cyclopentyl-3,4-dichlorobenzylcyanide]	128	78	–	–	IC50 (dopamine transporter; [1]): 128 nM
COC(=O)C(c1ccccc1)C1CCCCN1 (centres unmarked) [Methylphenidate, reference compound]	–	–	–	–	DAT/SERT RATIO (dopamine transporter): 5,800; IC50 (dopamine transporter): 17.2 ± 2.04 nM; IC50 (serotonin transporter): > 100 µM
CO[C@@H]1C[C@@H](c2ccc(Cl)c(Cl)c2)c2ccccc21 (relative stereo) [Compound 0-1630, Trans-1-Methoxy-3-(3,4-dichlorophenyl)indans]	60 ± 23	6	–	0.334 ± 0.1	–
O=C(O)[C@H](c1ccc(Cl)c(Cl)c1)[C@H]1CCCCO1	–	–	–	–	melting point: 139.1 to 140.1 °C
COC(=O)[C@H](c1ccc(Cl)c(Cl)c1)[C@@H]1CCCCO1 [Compound O-1792, 2R-(3,4-Dichlorophenyl)tetrahydropyran-2′S-yl acetic acid methyl ester]	–	–	> 10	> 10	–
COC(=O)[C@@H](c1ccc(Cl)c(Cl)c1)[C@@H]1CCCCO1 [Compound O-1794, 2S-(3,4-Dichlorophenyl)tetrahydropyran-2′S-yl acetic acid methyl ester]	–	–	1.66	–	IC50 (dopamine transporter): 33.9 ± 8.6 nM
COC(=O)C(c1ccc(Cl)c(Cl)c1)C1CCCCO1 (centres unmarked) [Compound 0-1730, 2-(3,4-Dichlorophenyl)tetrahydropyran-2-yl acetic acid methyl esters]	–	–	–	2.18	–
CO[C@@H]1C[C@H](c2ccc(Cl)c(Cl)c2)c2ccccc21 (relative stereo) [Compound 0-1617, Cis-1-Methoxy-3-(3,4-dichlorophenyl)indans]	130 ± 49.7	>32	–	> 4.1	–
